# Experimental data from ChEMBL document CHEMBL3102787, “Linear propargylic alcohol functionality attached to the indazole-7-carboxamide as a JAK1-specific linear probe group” (Bioorg Med Chem, 2014).
# Columns and labels:
# [1] = target: Tyrosine-protein kinase JAK2 (Homo sapiens) (UniProt O60674); conditions: at 10 µM
# Description: Inhibition of JAK2 (unknown origin) at 10 uM
# [2] = target: T1, Tyrosine-protein kinase JAK3 (Homo sapiens) (UniProt P52333); conditions: at 10 µM
# T1 sequence (whole entry): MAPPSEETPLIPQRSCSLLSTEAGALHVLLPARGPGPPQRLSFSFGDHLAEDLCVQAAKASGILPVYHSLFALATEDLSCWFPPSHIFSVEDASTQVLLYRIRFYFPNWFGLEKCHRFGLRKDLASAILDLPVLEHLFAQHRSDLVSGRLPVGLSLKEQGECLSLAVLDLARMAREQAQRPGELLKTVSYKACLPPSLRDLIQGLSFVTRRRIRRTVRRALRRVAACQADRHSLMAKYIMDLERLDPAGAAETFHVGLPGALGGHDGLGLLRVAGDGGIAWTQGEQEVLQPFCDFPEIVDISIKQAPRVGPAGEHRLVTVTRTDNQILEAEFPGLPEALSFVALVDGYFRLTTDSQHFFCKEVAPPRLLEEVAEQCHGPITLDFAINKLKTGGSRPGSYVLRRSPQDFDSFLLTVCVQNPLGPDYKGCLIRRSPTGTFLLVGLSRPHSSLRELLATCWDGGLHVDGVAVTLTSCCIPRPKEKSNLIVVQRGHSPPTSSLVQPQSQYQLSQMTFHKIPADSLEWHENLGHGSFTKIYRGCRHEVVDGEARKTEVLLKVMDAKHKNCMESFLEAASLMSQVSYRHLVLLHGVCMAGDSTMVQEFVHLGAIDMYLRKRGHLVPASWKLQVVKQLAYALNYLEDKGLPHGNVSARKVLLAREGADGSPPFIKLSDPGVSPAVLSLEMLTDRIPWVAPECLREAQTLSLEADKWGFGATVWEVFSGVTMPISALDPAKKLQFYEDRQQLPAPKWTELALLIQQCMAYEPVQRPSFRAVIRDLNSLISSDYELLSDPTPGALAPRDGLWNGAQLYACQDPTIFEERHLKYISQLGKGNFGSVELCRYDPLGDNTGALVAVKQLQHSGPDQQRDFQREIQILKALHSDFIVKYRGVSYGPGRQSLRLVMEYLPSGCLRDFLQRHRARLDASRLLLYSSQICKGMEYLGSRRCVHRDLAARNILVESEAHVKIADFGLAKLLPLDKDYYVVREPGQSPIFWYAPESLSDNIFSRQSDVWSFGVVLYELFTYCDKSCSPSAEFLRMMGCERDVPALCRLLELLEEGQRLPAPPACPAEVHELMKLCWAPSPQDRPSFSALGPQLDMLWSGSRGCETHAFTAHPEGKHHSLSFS
# Description: Inhibition of JAK3 (unknown origin) at 10 uM
# Tyrosine-protein kinase JAK2 (Homo sapiens), sequence (O60674 whole entry): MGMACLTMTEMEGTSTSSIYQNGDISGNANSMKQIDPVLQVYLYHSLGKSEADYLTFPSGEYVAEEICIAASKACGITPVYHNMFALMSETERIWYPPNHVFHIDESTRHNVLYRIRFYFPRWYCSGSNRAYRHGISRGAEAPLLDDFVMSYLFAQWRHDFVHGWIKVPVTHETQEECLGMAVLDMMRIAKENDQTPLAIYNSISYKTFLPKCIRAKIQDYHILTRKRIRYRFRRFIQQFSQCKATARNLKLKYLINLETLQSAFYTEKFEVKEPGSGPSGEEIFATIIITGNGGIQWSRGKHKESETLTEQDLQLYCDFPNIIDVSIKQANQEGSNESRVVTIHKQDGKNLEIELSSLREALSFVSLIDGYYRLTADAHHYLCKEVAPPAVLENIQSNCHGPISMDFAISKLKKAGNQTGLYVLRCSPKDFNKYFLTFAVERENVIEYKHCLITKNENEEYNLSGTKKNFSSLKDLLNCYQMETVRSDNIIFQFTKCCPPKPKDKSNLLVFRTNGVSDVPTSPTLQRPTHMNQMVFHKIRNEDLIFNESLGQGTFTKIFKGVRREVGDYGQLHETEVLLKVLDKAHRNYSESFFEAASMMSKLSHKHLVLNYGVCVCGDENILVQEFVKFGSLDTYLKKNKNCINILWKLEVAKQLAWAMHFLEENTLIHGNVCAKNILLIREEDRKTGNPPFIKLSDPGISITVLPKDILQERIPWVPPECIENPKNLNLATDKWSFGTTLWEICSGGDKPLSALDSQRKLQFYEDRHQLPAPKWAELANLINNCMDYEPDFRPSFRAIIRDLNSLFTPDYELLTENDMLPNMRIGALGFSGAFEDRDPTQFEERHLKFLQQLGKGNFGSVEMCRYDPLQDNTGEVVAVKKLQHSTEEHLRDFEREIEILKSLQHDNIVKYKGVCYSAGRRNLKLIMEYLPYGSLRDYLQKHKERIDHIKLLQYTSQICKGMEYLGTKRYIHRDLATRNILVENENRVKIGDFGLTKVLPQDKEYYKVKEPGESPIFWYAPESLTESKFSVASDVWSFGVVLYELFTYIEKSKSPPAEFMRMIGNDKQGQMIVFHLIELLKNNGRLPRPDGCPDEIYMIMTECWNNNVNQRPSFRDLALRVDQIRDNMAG
inhibition [1],inhibition [2],Structure (SMILES)
-0.4%,38.1%,NC(=O)c1cc(-c2cc(N)cc3[nH]ncc23)cc2c(C#CCO)n[nH]c12
2.2%,24.9%,NC(=O)c1cc(-c2cccc3[nH]ncc23)cc2c(C#CCO)n[nH]c12
2.5%,48.1%,NC(=O)c1cc(-c2cc(N)cc3[nH]ncc23)cc2c(C#CCCO)n[nH]c12

# More lines, now with the values behind:
Structure (SMILES),inhibition [1],inhibition [2]
NC(=O)c1cc(-c2cc(N)cc3[nH]ncc23)cc2cn[nH]c12,9.1%,15.7%
NC(=O)c1cc(-c2cccc3[nH]ncc23)cc2cn[nH]c12,1.2%,22.5%
NC(=O)c1cc(-c2cccc3[nH]ncc23)cc2c(C#CCCO)n[nH]c12,6.7%,32.3%
